What all share (format): cell-based
In one experiment the test system is P. aeruginosa A9843. The experiment is described as follows: MIC against selected test organisms (Table 2). The following applies: Pseudomonas aeruginosa.
The next experiment relates to E. coli Juhl. The experiment is described as follows: MIC against selected test organisms (Table 2). To be noted: Escherichia coli, read-out: Minimum Inhibitory Concentration.
Another experiment deals with B. fragilis Group III. The experiment is described as follows: In vitro antianaerobic activity in GAM agar (Table 4). The following applies: read-out: Geometric Mean of MIC, GAM agar, lactamase-producing, highly ampicillin-resistant, 2 strains.
In a further experiment the test system is K. pneumoniae D11. The experiment is described as follows: MIC against selected test organisms (Table 2). The following applies: Klebsiella pneumoniae.
A further experiment concerns B. fragilis A22695. The experiment is described as follows: MIC against selected test organisms (Table 2). The following applies: Bacteroides fragilis.
Another experiment relates to B. fragilis A22021. The experiment is described as follows: MIC against selected test organisms (Table 2). To be noted: Bacteroides fragilis, A22021, read-out: Minimum Inhibitory Concentration.
In another experiment the test system is B. fragilis Group I. The experiment is described as follows: In vitro antianaerobic activity in GAM agar (Table 4). The following applies: Bacteroides fragilis, read-out: Geometric Mean of MIC, GAM agar, nonlactamase-producing, ampicillin-sensitive, 3 strains.
Experiment [1] has as its system Others Group IV (C. difficile, C. perfringens, P. acne and P. anaerobius). The experiment is described as follows: microbe, parasite or virus in culture. The following applies: read-out: Geometric Mean of MIC, GAM agar, 1 strain each.
The next experiment has as its system Ps. aeruginosa (Gn-III). The experiment is described as follows: In vitro antibacterial activity, two-fold agar dilution, Mueller-Hinton agar (Table 1), group Gn-III. The following applies: Pseudomonas aeruginosa; read-out: Geometric Mean of MIC. For orientation: Agar dilution tests growth on a series of plates holding different concentrations.
For a further experiment, the system named is H. influenzae(AMP-R). The experiment is described as follows: In vitro activity against species of Streptococcus, Neisseria and Haemophilus (Table 3). To be noted: Haemophilus influenzae, read-out: Geometric Mean of MIC.
In the next experiment the test system is B. fragilis Group II. The experiment is described as follows: In vitro antianaerobic activity in GAM agar (Table 4). To be noted: Bacteroides fragilis, read-out: Geometric Mean of MIC, GAM agar, lactamase-producing, moderately ampicillin-resistant, 3 strains.
The test system of the next experiment is C. perfringens A9635. The experiment is described as follows: microbe, parasite or virus in culture. To be noted: Clostridium perfringens, A9635, read-out: Minimum Inhibitory Concentration.
Experiment [2] concerns Penicillin-sensitive S. aureus (Gp-Ia). The experiment is described as follows: In vitro antibacterial activity, two-fold agar dilution, Mueller-Hinton agar (Table 1), group Gp-Ia. The following applies: Staphylococcus aureus; read-out: Geometric Mean of MIC.
Another experiment has as its system S. aureus BX-1633. The experiment is described as follows: MIC against selected test organisms (Table 2). To be noted: Staphylococcus aureus, BX1633, read-out: Minimum Inhibitory Concentration.
The next experiment relates to E. cloacae A9656. The experiment is described as follows: MIC against selected test organisms (Table 2). The following applies: Enterobacter cloacae, Gn-II, CET-R, read-out: Minimum Inhibitory Concentration.
Another experiment relates to S. aureus A15092. The experiment is described as follows: MIC against selected test organisms (Table 2). The following applies: Staphylococcus aureus, Gp-Ib, PC-R, read-out: Minimum Inhibitory Concentration.
The test system of the next experiment is S. aureus Smith. The experiment is described as follows: MIC against selected test organisms (Table 2). The following applies: Staphylococcus aureus; Gp-Ia, PC-S; read-out: Minimum Inhibitory Concentration.
The subject of a further experiment is S. aureus A9497. The experiment is described as follows: MIC against selected test organisms (Table 2). The following applies: Staphylococcus aureus, Gp-Ia, PC-S, read-out: Minimum Inhibitory Concentration.
[3] abbreviates: Example 4, ceftazidime (mean of 3 experiments).
Setting [4] is: Example 5 ceftazidime (mean of 2 experiments).

Values after ≈ are worked out from the molar mass of the structure shown. Read-outs that look alike come from different tables or passages of the source.

Our source for the MIC values is US4394503A, “Cephalosporin derivatives” (priority 1981, dated 1983).

Turning to `CC(C)(O/N=C(\C(=O)N[C@@H]1C(=O)N2C(C(=O)[O-])=C(C[n+]3ccccc3)CS[C@H]12)c1csc(N)n1)C(=O)O` [Ceftazidime, ceftazidime, reference compound], the MIC with P. aeruginosa A9843 (A9843, read-out: Minimum Inhibitory Concentration) is 1.6 µg/mL (≈ 2.93 µM); in the experiment with E. coli Juhl, 0.1 µg/mL (≈ 0.183 µM); in the experiment on B. fragilis Group III (setting [3]), 81 µg/mL (≈ 148 µM); in the experiment on B. fragilis Group III (setting [4]) it was greater than 100 µg/mL; in the experiment with K. pneumoniae D11 (D11, read-out: Minimum Inhibitory Concentration), 0.1 µg/mL (≈ 0.183 µM); with B. fragilis A22695 (A22695, read-out: Minimum Inhibitory Concentration) it was 50 µg/mL (≈ 91.5 µM). Further, the MIC in the experiment with B. fragilis A22021 was determined as 12.5 µg/mL (≈ 22.9 µM); in the experiment with B. fragilis Group I (setting [3]) it was 5.3 µg/mL (≈ 9.7 µM); in the experiment with B. fragilis Group I (setting [4]) it was 8.9 µg/mL (≈ 16.3 µM); in [1] (setting [3]), 6.2 µg/mL (≈ 11.3 µM); in experiment [1] (setting [4]) it was 8.2 µg/mL (≈ 15 µM); in the experiment with Ps. aeruginosa (Gn-III), 2 µg/mL (≈ 3.66 µM). The MIC with H. influenzae(AMP-R) turned out to be 0.2 µg/mL (≈ 0.366 µM); in the experiment with B. fragilis Group II (setting [3]) it was 13 µg/mL (≈ 23.8 µM); in the experiment with B. fragilis Group II (setting [4]), 16 µg/mL (≈ 29.3 µM); in the experiment with C. perfringens A9635, 6.3 µg/mL (≈ 11.5 µM).

Consider `CSc1cc[n+](CC2=C(C(=O)[O-])N3C(=O)C(NC(=O)/C(=N\OC(C)(C)C(=O)O)c4csc(N)n4)C3SC2)cc1` (stereo not drawn) [Example 2, 7-[(Z)-2-(2-Aminothiazol-4-yl)-2-(2-carboxyprop-2-oxyimino)-acetamido]-3-[(4-methylthiopyridinium)methyl]-3-cephem-4-carboxylate], for which the MIC in the experiment on P. aeruginosa A9843 (A9843, Gn-III, CET-R, read-out: Minimum Inhibitory Concentration) amounted to 1.6 µg/mL (≈ 2.7 µM); with E. coli Juhl (Gn-Ia, CET-S), 0.1 µg/mL (≈ 0.169 µM); in experiment [2], 4.7 µg/mL (≈ 7.93 µM); in the experiment with S. aureus BX-1633, 6.3 µg/mL (≈ 10.6 µM); with E. cloacae A9656, 0.2 µg/mL (≈ 0.337 µM); in the experiment on S. aureus A15092, 6.3 µg/mL (≈ 10.6 µM). Besides, the MIC in the experiment on S. aureus Smith was 6.3 µg/mL (≈ 10.6 µM); with K. pneumoniae D11 (D11, Gn-Ia, CET-S, read-out: Minimum Inhibitory Concentration), 0.1 µg/mL (≈ 0.169 µM); with B. fragilis A22695 (A22695, Anaerobe, AMP-R, read-out: Minimum Inhibitory Concentration) it was 50 µg/mL (≈ 84.4 µM); in the experiment with B. fragilis A22021 it was 12.5 µg/mL (≈ 21.1 µM); with Ps. aeruginosa (Gn-III) it was 3.1 µg/mL (≈ 5.23 µM); with H. influenzae(AMP-R) (AMP-R, 3 strains) it was 0.4 µg/mL (≈ 0.675 µM). Besides, the MIC with S. aureus A9497 stood at 3.1 µg/mL (≈ 5.23 µM); in the experiment with C. perfringens A9635 it was 12.5 µg/mL (≈ 21.1 µM).
